In ChEMBL document CHEMBL6120971 (J Med Chem, 2024):
Active and inactive are the calls of the source. The calls are words filed in the database; no cut-off is given here.

Legend:
MKN-45 [1] = experiment: Antitumor activity against human MKN-45 cells xenografted in BALB/c nude mouse assessed as reduction in tumor growth administered orally as once daily dose for 21 days; format: functional; conditions: dose 10-40 mg/kg, route po, time 21.0 day
[2] = Toxicity in BALB/c nude mouse xenografted with human MKN-45 cells assessed as effect on spleen morphology at 10 to 40 mg/kg, po administered once daily for 21 days by H and E staining based analysis; format: organism-based; conditions: in vivo, 504 h, dose 10-40 mg/kg, time 21 day
[3] = biological target: T1, Protein cereblon/Hepatocyte growth factor receptor (Homo sapiens, UniProt P08581+Q96SW2); experiment: PROTAC activity at CRBN/c-MET in human MKN-45 cells assessed as induction of c-MET degradation at 100 nM preincubated with capmatinib for 2 hrs followed by compound addition and measured after 24 hrs by Western blot analysis; format: cell-based
Target sequence in this assay (P08581 25-1390 limits assumed): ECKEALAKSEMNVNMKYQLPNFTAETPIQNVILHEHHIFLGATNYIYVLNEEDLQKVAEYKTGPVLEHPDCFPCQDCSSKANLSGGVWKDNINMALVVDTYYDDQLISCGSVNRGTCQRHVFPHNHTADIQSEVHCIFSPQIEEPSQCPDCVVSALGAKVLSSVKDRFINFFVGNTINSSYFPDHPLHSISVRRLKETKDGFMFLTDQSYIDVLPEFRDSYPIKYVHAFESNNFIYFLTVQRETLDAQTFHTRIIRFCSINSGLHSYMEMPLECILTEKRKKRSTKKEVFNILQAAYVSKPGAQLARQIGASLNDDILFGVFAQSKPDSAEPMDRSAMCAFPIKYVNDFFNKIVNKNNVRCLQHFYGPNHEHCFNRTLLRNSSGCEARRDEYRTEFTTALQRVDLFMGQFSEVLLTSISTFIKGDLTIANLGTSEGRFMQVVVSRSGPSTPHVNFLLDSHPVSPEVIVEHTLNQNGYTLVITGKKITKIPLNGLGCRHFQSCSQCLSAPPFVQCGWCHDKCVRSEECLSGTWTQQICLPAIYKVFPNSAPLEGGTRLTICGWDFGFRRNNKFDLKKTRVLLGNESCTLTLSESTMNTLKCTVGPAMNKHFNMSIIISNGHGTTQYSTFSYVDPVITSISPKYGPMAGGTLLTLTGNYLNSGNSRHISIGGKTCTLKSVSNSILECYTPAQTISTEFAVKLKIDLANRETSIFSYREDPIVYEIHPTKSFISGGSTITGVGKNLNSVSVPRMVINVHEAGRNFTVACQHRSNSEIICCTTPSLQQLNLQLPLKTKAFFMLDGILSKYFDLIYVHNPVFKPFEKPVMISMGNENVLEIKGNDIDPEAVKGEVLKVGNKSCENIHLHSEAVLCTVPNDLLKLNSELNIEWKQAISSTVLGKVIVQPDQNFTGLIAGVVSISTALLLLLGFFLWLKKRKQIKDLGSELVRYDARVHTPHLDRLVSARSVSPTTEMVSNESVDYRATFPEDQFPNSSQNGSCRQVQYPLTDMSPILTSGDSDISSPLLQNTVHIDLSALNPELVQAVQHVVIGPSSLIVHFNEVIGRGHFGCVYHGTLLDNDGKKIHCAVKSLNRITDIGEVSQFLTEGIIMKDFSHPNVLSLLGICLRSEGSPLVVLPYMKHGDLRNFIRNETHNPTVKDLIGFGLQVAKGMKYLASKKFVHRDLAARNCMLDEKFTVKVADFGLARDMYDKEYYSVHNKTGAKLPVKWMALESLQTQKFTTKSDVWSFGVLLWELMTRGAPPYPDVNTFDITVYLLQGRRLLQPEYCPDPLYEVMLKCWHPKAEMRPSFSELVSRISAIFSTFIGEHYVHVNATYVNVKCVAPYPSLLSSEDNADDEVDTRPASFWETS
Target sequence in this assay (Q96SW2 whole entry partner): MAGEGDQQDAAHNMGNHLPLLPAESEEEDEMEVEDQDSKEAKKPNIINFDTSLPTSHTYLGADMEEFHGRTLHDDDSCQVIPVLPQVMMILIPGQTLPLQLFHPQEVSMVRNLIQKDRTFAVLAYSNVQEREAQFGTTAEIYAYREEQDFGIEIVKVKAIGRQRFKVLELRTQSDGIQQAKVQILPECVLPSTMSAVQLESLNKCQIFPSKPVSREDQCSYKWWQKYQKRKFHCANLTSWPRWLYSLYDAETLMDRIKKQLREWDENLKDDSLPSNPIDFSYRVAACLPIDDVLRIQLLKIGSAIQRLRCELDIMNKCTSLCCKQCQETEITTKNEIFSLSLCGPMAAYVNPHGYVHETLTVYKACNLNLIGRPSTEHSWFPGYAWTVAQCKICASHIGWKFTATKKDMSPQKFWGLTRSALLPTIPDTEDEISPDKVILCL

[4] = biological target: T1, Protein cereblon/Hepatocyte growth factor receptor; experiment: PROTAC activity at CRBN/c-MET in human Hs746T cells assessed as induction of c-MET degradation at 12.5 to 200 nM incubated for 24 hrs by Western blot analysis; format: cell-based; conditions: dose 12.5-200 nM
Target sequence in this assay (P08581 25-1390 limits assumed): as the sequence (P08581 25-1390 limits assumed) above
Target sequence in this assay (Q96SW2 whole entry partner): as the sequence (Q96SW2 whole entry partner) above

[5] = biological target: T1, Protein cereblon/Hepatocyte growth factor receptor; experiment: PROTAC activity at CRBN/c-MET in human MKN-45 cells assessed as induction of c-MET degradation at 100 nM incubated for 2 to 16 hrs by Western blot analysis; format: cell-based; conditions: time 2-16 hrs
Target sequence in this assay (P08581 25-1390 limits assumed): as the sequence (P08581 25-1390 limits assumed) above
Target sequence in this assay (Q96SW2 whole entry partner): as the sequence (Q96SW2 whole entry partner) above

[6] = biological target: T1, Protein cereblon/Hepatocyte growth factor receptor; experiment: PROTAC activity at CRBN/c-MET in human MKN-45 cells assessed as induction of c-MET degradation at 6.25 to 100 nM incubated for 24 hrs by Western blot analysis; format: cell-based; conditions: dose 6.25-100 nM
Target sequence in this assay (P08581 25-1390 limits assumed): as the sequence (P08581 25-1390 limits assumed) above
Target sequence in this assay (Q96SW2 whole entry partner): as the sequence (Q96SW2 whole entry partner) above

MKN-45 [7] = experiment: Downregulation of SLC7A1 protein level in human MKN-45 cells at 100 nM incubated for 24 hrs by MS-based quantitative proteomics analysis; format: functional, cell-based
[8] = Toxicity in BALB/c nude mouse xenografted with human MKN-45 cells assessed as effect on lung morphology at 10 to 40 mg/kg, po administered once daily for 21 days by H and E staining based analysis; format: organism-based; conditions: in vivo, 504 h, dose 10-40 mg/kg, time 21 day
MKN-45 [9] = experiment: Upregulation of PDCD4 protein level in human MKN-45 cells at 100 nM incubated for 24 hrs by MS-based quantitative proteomics analysis; format: functional, cell-based
[10] = Downregulation of c-MET protein level in human MKN-45 cells assessed as fold change at 100 nM incubated for 24 hrs by MS-based quantitative proteomics analysis relative to control; format: functional
[11] = Toxicity in BALB/c nude mouse xenografted with human MKN-45 cells assessed as effect on liver morphology at 10 to 40 mg/kg, po administered once daily for 21 days by H and E staining based analysis; format: organism-based; conditions: in vivo, 504 h, dose 10-40 mg/kg, time 21 day
[12] = AUC (0 to infinity) in male Sprague-Dawley rat at 10 mg/kg, po measured after 24 hrs by LC-MS/MS analysis; format: ADME, organism-based; conditions: in vivo
[13] = biological target: T1, Protein cereblon/Hepatocyte growth factor receptor; experiment: PROTAC activity at CRBN/c-MET in human PC-9 cells assessed as induction of c-MET degradation at 3.125 to 50 nM incubated for 24 hrs by Western blot analysis; format: cell-based; conditions: dose 3.125-50 nM
Target sequence in this assay (P08581 25-1390 limits assumed): as the sequence (P08581 25-1390 limits assumed) above
Target sequence in this assay (Q96SW2 whole entry partner): as the sequence (Q96SW2 whole entry partner) above

PC-9 [14] = experiment: Cell cycle arrest in human PC-9 cells assessed as accumulation of cells at G0/G1 phase incubated for 48 hrs by PI staining based flow cytometric analysis; format: functional; conditions: dose 3.125-50 nM
[15] = Downregulation of c-MET protein level in human MKN-45 cells assessed as residual activity at 100 nM incubated for 24 hrs by MS-based quantitative proteomics analysis relative to control; format: functional
[16] = Cmax in male Sprague-Dawley rat at 10 mg/kg, iv measured after 24 hrs by LC-MS/MS analysis; format: ADME, organism-based; conditions: in vivo
[17] = Toxicity in BALB/c nude mouse xenografted with human MKN-45 cells assessed as effect on heart morphology at 10 to 40 mg/kg, po administered once daily for 21 days by H and E staining based analysis; format: organism-based; conditions: in vivo, 504 h, dose 10-40 mg/kg, time 21 day
[18] = biological target: T1, Protein cereblon/Hepatocyte growth factor receptor; experiment: PROTAC activity at CRBN/c-MET in human MKN-45 cells assessed as induction of c-MET degradation at 100 nM preincubated with MLN4924 for 2 hrs followed by compound addition and measured after 24 hrs by Western blot analysis; format: cell-based
Target sequence in this assay (P08581 25-1390 limits assumed): as the sequence (P08581 25-1390 limits assumed) above
Target sequence in this assay (Q96SW2 whole entry partner): as the sequence (Q96SW2 whole entry partner) above

[19] = AUC (0 to infinity) in male Sprague-Dawley rat at 10 mg/kg, iv measured after 24 hrs by LC-MS/MS analysis; format: ADME, organism-based; conditions: in vivo
Hs746T = experiment: Inhibition of c-MET/Akt signaling pathway activation in human Hs746T cells at 12.5 to 200 nM incubated for 24 hrs by Western blot analysis; format: cell-based; conditions: dose 12.5-200 nM
MKN-45 [20] = experiment: Downregulation of ULK2B protein level in human MKN-45 cells at 100 nM incubated for 24 hrs by MS-based quantitative proteomics analysis; format: functional, cell-based
PC-9 [21] = experiment: Inhibition of c-MET/Akt signaling pathway activation in human PC-9 cells at 3.125 to 50 nM incubated for 24 hrs by Western blot analysis; format: cell-based; conditions: dose 3.125-50 nM
[22] = MRT (0 to infinity) in male Sprague-Dawley rat at 10 mg/kg, po measured after 24 hrs by LC-MS/MS analysis; format: ADME, organism-based; conditions: in vivo
[23] = Toxicity in BALB/c nude mouse xenografted with human MKN-45 cells assessed as body weight loss at 10 to 40 mg/kg, po administered once daily for 21 days; format: organism-based; conditions: in vivo, 504 h, dose 10-40 mg/kg, time 21 day
[24] = Half-life in male Sprague-Dawley rat at 10 mg/kg, po measured after 24 hrs by LC-MS/MS analysis; format: ADME, organism-based; conditions: in vivo
MKN-45 [25] = experiment: Antitumor activity against human MKN-45 cells xenografted in BALB/c nude mouse assessed as reduction in tumor growth at 10 mg/kg, po administered once daily for 21 days; format: functional, organism-based; conditions: time 21.0 day
[26] = Half-life in male Sprague-Dawley rat at 10 mg/kg, iv measured after 24 hrs by LC-MS/MS analysis; format: ADME, organism-based; conditions: in vivo
PC-9 [27] = experiment: Induction of apoptosis in human PC-9 cells at 3.125 to 50 nM incubated for 48 hrs by Annexin V-FITC/PI staining based flow cytometric analysis; format: functional, cell-based; conditions: dose 3.125-50 nM
[28] = biological target: T1, Protein cereblon/Hepatocyte growth factor receptor; experiment: PROTAC activity at CRBN/c-MET in human MKN-45 cells assessed as induction of c-MET degradation incubated for 24 hrs by Western blot analysis; format: cell-based
Target sequence in this assay (P08581 whole entry): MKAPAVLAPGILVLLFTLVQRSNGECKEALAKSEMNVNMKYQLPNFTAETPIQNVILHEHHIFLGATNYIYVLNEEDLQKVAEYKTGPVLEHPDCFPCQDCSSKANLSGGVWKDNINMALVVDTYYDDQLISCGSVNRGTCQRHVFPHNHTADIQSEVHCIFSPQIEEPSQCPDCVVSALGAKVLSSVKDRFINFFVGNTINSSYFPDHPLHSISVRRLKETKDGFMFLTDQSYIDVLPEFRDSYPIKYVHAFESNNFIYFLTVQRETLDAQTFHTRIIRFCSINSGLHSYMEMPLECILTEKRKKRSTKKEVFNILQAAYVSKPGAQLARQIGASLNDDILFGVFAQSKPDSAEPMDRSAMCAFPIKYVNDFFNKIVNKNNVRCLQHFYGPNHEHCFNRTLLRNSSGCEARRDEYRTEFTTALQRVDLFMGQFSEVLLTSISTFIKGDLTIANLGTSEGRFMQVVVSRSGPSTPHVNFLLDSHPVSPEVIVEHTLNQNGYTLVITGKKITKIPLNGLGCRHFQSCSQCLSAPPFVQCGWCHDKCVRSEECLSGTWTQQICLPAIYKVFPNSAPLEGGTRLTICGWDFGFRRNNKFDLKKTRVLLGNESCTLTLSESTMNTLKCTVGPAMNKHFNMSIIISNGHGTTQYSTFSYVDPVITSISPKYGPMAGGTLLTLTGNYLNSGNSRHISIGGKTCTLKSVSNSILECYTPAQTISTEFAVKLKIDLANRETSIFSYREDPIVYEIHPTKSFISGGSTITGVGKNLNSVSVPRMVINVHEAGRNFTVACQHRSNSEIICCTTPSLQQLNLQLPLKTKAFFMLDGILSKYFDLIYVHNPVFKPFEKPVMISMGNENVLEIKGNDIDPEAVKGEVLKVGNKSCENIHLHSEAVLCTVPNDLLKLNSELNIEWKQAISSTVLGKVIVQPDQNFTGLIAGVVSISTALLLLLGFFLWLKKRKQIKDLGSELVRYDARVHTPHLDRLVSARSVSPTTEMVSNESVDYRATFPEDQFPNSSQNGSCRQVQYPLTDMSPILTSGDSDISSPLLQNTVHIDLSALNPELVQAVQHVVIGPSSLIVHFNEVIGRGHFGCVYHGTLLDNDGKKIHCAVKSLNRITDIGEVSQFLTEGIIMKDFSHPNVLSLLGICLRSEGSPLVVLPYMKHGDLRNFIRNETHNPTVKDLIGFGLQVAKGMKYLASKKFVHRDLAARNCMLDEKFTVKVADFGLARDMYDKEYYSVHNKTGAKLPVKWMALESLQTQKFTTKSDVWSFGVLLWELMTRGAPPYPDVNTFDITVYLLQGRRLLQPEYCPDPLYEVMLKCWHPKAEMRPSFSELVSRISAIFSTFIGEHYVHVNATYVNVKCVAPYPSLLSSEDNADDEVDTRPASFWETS
Target sequence in this assay (Q96SW2 whole entry): as the sequence (Q96SW2 whole entry partner) above

MKN-45 [29] = experiment: Upregulation of HSPG2 protein level in human MKN-45 cells at 100 nM incubated for 24 hrs by MS-based quantitative proteomics analysis; format: functional, cell-based
[30] = Toxicity in BALB/c nude mouse xenografted with human MKN-45 cells assessed as effect on kidney morphology at 10 to 40 mg/kg, po administered once daily for 21 days by H and E staining based analysis; format: organism-based; conditions: in vivo, 504 h, dose 10-40 mg/kg, time 21 day
Mus musculus = experiment: Downregulation of c-MET protein level in BALB/c nude mouse liver xenografted with human MKN-45 cells at 10 mg/kg, po measured after 48 hrs by Western blot analysis; format: functional, organism-based
[31] = biological target: T1, Protein cereblon/Hepatocyte growth factor receptor; experiment: PROTAC activity at CRBN/c-MET in human A549 cells assessed as induction of c-MET degradation at 12.5 to 200 nM incubated for 24 hrs by Western blot analysis; format: cell-based; conditions: dose 12.5-200 nM
[32] = biological target: T1, Protein cereblon/Hepatocyte growth factor receptor; experiment: PROTAC activity at CRBN/c-MET in human MKN-45 cells assessed as induction of c-MET degradation at 100 nM preincubated with MG132 for 2 hrs followed by compound addition and measured after 24 hrs by Western blot analysis; format: cell-based

O=C1CCC(N2C(=O)c3ccc(N4CCN(CC5CCN(C(=O)c6ccc(-c7cnc8ncc(Cc9ccc%10ncccc%10c9)n8n7)cc6F)CC5)CC4)cc3C2=O)C(=O)N1 (centres undefined)
Activity (MKN-45 [1]): Dose-dependent-effect
Activity [2]: Non-toxic
Activity [3]: inactive
Activity [4]: Active
Activity [5]: Active
Activity [6]: Active
Activity (MKN-45 [7]): Active
Activity [8]: Non-toxic
Activity (MKN-45 [9]): Active
fold change (FC) [10]: 29.6
Activity [11]: Non-toxic
AUC(0-inf) [12]: 411 ng·h/mL
Activity [13]: Active
Activity (PC-9 [14]): Dose-dependent-effect
Activity [15]: 3.38%
Cmax [16]: 1650 ng/mL
Activity [17]: Non-toxic
Activity [18]: inactive
AUC(0-inf) [19]: 2520 ng·h/mL
inhibition (Hs746T): Active
Activity (MKN-45 [20]): Active
inhibition (PC-9 [21]): Active
MRT inf [22]: 6.66 h
Activity [23]: Non-toxic
half-life [24]: 4.13 h
Activity (MKN-45 [25]): Active; Significant Effect Observed
half-life [26]: 5.35 h
Activity (PC-9 [27]): Active; Little Effect Observed
DC50 [28]: 6.21 nM
Activity (MKN-45 [29]): Active
Activity [30]: Non-toxic
Activity (Mus musculus): Not active; Favorable Tissue Specificity Of Compound Observed
Activity [31]: inactive
Activity [32]: inactive
